In PubChem BioAssay (NCI):
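48-hour exposure; five concentrations; linearly interpolated endpoints. TGI marks complete inhibition of growth.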

Columns and labels:
Assay in all cases: NCI tumour cell line growth inhibition, 48 h
U251 CNS = system: U251 CNS
SK-MEL-5 melanoma = system: SK-MEL-5 melanoma
HL-60(TB) leukemia = system: HL-60(TB) leukemia
KM12 colon = system: KM12 colon
HOP-18 NSCLC = system: HOP-18 NSCLC
TK-10 renal = system: TK-10 renal
786-0 renal = system: 786-0 renal
LXFL 529 NSCLC = system: LXFL 529 NSCLC
DLD-1 colon = system: DLD-1 colon
HOP-62 NSCLC = system: HOP-62 NSCLC
COLO 205 colon = system: COLO 205 colon
UACC-62 melanoma = system: UACC-62 melanoma
RXF 393 renal = system: RXF 393 renal
KM20L2 colon = system: KM20L2 colon
HCT-116 colon = system: HCT-116 colon
SF-295 CNS = system: SF-295 CNS
HT29 colon = system: HT29 colon
RPMI-8226 leukemia = system: RPMI-8226 leukemia
SNB-78 CNS = system: SNB-78 CNS
DMS 273 small cell lung = system: DMS 273 small cell lung
XF 498 CNS = system: XF 498 CNS
DMS 114 small cell lung = system: DMS 114 small cell lung
RXF-631 renal = system: RXF-631 renal
A549 NSCLC = system: A549 NSCLC
SR leukemia = system: SR leukemia
NCI-H23 lung = system: NCI-H23 lung
OVCAR-5 ovarian = system: OVCAR-5 ovarian
SN12C renal = system: SN12C renal
HCT-15 colon = system: HCT-15 colon
SK-MEL-2 melanoma = system: SK-MEL-2 melanoma
UACC-257 melanoma = system: UACC-257 melanoma
CCRF-CEM leukemia = system: CCRF-CEM leukemia
A498 renal = system: A498 renal
ACHN renal = system: ACHN renal
OVCAR-4 ovarian = system: OVCAR-4 ovarian
SF-539 CNS = system: SF-539 CNS
CAKI-1 renal = system: CAKI-1 renal
MALME-3M melanoma = system: MALME-3M melanoma
MOLT-4 leukemia = system: MOLT-4 leukemia
SW-620 colon = system: SW-620 colon
OVCAR-8 ovarian = system: OVCAR-8 ovarian
K-562 leukemia = system: K-562 leukemia
SF-268 CNS = system: SF-268 CNS
HOP-92 NSCLC = system: HOP-92 NSCLC
UO-31 renal = system: UO-31 renal
NCI-H460 lung = system: NCI-H460 lung
SK-OV-3 ovarian = system: SK-OV-3 ovarian
HCC-2998 colon = system: HCC-2998 colon
SNB-75 CNS = system: SNB-75 CNS
NCI-H522 lung = system: NCI-H522 lung
SNB-19 CNS = system: SNB-19 CNS
M19-MEL melanoma = system: M19-MEL melanoma
OVCAR-3 ovarian = system: OVCAR-3 ovarian
IGROV1 ovarian = system: IGROV1 ovarian
M14 melanoma = system: M14 melanoma
EKVX NSCLC = system: EKVX NSCLC
NCI-H226 lung = system: NCI-H226 lung
LOX IMVI melanoma = system: LOX IMVI melanoma
SK-MEL-28 melanoma = system: SK-MEL-28 melanoma

## Cn1cnc2[nH]c(=O)[nH]c(=S)c21
U251 CNS
  TGI: > 100 µM
SK-MEL-5 melanoma
  TGI: > 100 µM
HL-60(TB) leukemia
  TGI: > 100 µM
KM12 colon
  TGI: > 100 µM
HOP-18 NSCLC
  TGI: > 100 µM
TK-10 renal
  TGI: > 100 µM
786-0 renal
  TGI: > 100 µM
LXFL 529 NSCLC
  TGI: > 100 µM
DLD-1 colon
  TGI: > 100 µM
HOP-62 NSCLC
  TGI: > 100 µM
COLO 205 colon
  TGI: > 100 µM
UACC-62 melanoma
  TGI: > 100 µM
RXF 393 renal
  TGI: > 100 µM
KM20L2 colon
  TGI: > 100 µM
HCT-116 colon
  TGI: > 100 µM
SF-295 CNS
  TGI: > 100 µM
HT29 colon
  TGI: > 100 µM
RPMI-8226 leukemia
  TGI: > 100 µM
SNB-78 CNS
  TGI: > 100 µM
DMS 273 small cell lung
  TGI: > 100 µM
XF 498 CNS
  TGI: > 100 µM
DMS 114 small cell lung
  TGI: > 100 µM
RXF-631 renal
  TGI: > 100 µM
A549 NSCLC
  TGI: > 100 µM
SR leukemia
  TGI: > 100 µM
NCI-H23 lung
  TGI: > 100 µM
OVCAR-5 ovarian
  TGI: > 100 µM
SN12C renal
  TGI: > 100 µM
HCT-15 colon
  TGI: > 100 µM
SK-MEL-2 melanoma
  TGI: > 100 µM
UACC-257 melanoma
  TGI: > 100 µM
CCRF-CEM leukemia
  TGI: > 100 µM
A498 renal
  TGI: > 100 µM
ACHN renal
  TGI: > 100 µM
OVCAR-4 ovarian
  TGI: > 100 µM
SF-539 CNS
  TGI: > 100 µM
CAKI-1 renal
  TGI: > 100 µM
MALME-3M melanoma
  TGI: > 100 µM
MOLT-4 leukemia
  TGI: > 100 µM
SW-620 colon
  TGI: > 100 µM
OVCAR-8 ovarian
  TGI: > 100 µM
K-562 leukemia
  TGI: > 100 µM
SF-268 CNS
  TGI: > 100 µM
HOP-92 NSCLC
  TGI: > 100 µM
UO-31 renal
  TGI: > 100 µM
NCI-H460 lung
  TGI: > 100 µM
SK-OV-3 ovarian
  TGI: > 100 µM
HCC-2998 colon
  TGI: > 100 µM
SNB-75 CNS
  TGI: > 100 µM
NCI-H522 lung
  TGI: > 100 µM
SNB-19 CNS
  TGI: > 100 µM
M19-MEL melanoma
  TGI: > 100 µM
OVCAR-3 ovarian
  TGI: > 100 µM
IGROV1 ovarian
  TGI: > 100 µM
M14 melanoma
  TGI: > 100 µM
EKVX NSCLC
  TGI: > 100 µM
NCI-H226 lung
  TGI: > 100 µM

## COc1ccc(NCc2cc(OC)cc(OC)c2)cc1
U251 CNS
  TGI: > 85 µM
SK-MEL-5 melanoma
  TGI: > 100 µM
HL-60(TB) leukemia
  TGI: 32.9 µM
KM12 colon
  TGI: > 64.9 µM
HOP-18 NSCLC
  TGI: > 100 µM
TK-10 renal
  TGI: > 100 µM
786-0 renal
  TGI: > 100 µM
LXFL 529 NSCLC
  TGI: > 100 µM
DLD-1 colon
  TGI: > 100 µM
HOP-62 NSCLC
  TGI: > 100 µM
COLO 205 colon
  TGI: 27.4 µM
UACC-62 melanoma
  TGI: > 100 µM
RXF 393 renal
  TGI: 69.8 µM
LOX IMVI melanoma
  TGI: > 100 µM
KM20L2 colon
  TGI: 38.1 µM
HCT-116 colon
  TGI: 57.3 µM
SF-295 CNS
  TGI: > 100 µM
HT29 colon
  TGI: > 100 µM
RPMI-8226 leukemia
  TGI: 61.6 µM
SNB-78 CNS
  TGI: 61.8 µM
DMS 273 small cell lung
  TGI: > 70.4 µM
XF 498 CNS
  TGI: > 76.8 µM
DMS 114 small cell lung
  TGI: > 100 µM
RXF-631 renal
  TGI: > 100 µM
A549 NSCLC
  TGI: > 100 µM
SR leukemia
  TGI: > 100 µM
NCI-H23 lung
  TGI: > 95.5 µM
OVCAR-5 ovarian
  TGI: 77.7 µM
SN12C renal
  TGI: > 100 µM
HCT-15 colon
  TGI: > 100 µM
SK-MEL-2 melanoma
  TGI: > 82.7 µM
UACC-257 melanoma
  TGI: > 100 µM
CCRF-CEM leukemia
  TGI: > 92.6 µM
A498 renal
  TGI: > 100 µM
ACHN renal
  TGI: > 100 µM
OVCAR-4 ovarian
  TGI: 82.1 µM
SF-539 CNS
  TGI: 54.2 µM
CAKI-1 renal
  TGI: > 100 µM
MALME-3M melanoma
  TGI: > 100 µM
MOLT-4 leukemia
  TGI: > 100 µM
SW-620 colon
  TGI: > 100 µM
OVCAR-8 ovarian
  TGI: > 100 µM
K-562 leukemia
  TGI: > 84.6 µM
SF-268 CNS
  TGI: > 91 µM
HOP-92 NSCLC
  TGI: > 100 µM
SK-MEL-28 melanoma
  TGI: > 100 µM
UO-31 renal
  TGI: > 91.8 µM
NCI-H460 lung
  TGI: > 84.6 µM
SK-OV-3 ovarian
  TGI: > 95.5 µM
HCC-2998 colon
  TGI: 57.9 µM
SNB-75 CNS
  TGI: > 100 µM
NCI-H522 lung
  TGI: 56.7 µM
SNB-19 CNS
  TGI: > 100 µM
M19-MEL melanoma
  TGI: > 100 µM
OVCAR-3 ovarian
  TGI: > 59.3 µM
IGROV1 ovarian
  TGI: > 100 µM
M14 melanoma
  TGI: > 100 µM
EKVX NSCLC
  TGI: > 100 µM
NCI-H226 lung
  TGI: > 100 µM
